Measurements taken from PMC7353089, “The Hepatotoxicity of Alantolactone and Germacrone: Their Influence on Cholesterol and Lipid Metabolism in Differentiated HepaRG Cells” (Nutrients, 2020).
Read-outs that look alike come from different tables or passages of the source.

What was measured:
dHepaRG cells = assay: MTT cell viability assay; type: cell-based, human; conditions: for toxicity toward dHepaRG cells compared with cancer cells: comparison of own IC50 with previously reported IC50 values; for cell viability: 24 and 72 h, MTT method and LDH leakage
Procedure: Cryopreserved HepaRG cells were obtained from Biopredic International (Rennes, France). Undifferentiated cells were seeded according to the supplier protocols in 96-well plates for the viability assays, and in 6-well plates for the mRNA and western blot measurements. The cells were cultured for two weeks in Williams E Medium with GlutaMAX™ (Invitrogen, Paisley, UK) supplemented with 10% fetal bovine serum, 2 mM glutamine, 100 IU/mL penicillin, 100 μg/mL streptomycin, 5 μg/mL insulin, and 50 μM hydrocortisone hemisuccinate. The cells were afterwards cultured for another 2-week period in the same medium supplemented with 1.7% DMSO. The medium was replaced every 2–3 days.
In the 96-well plates, viability was evaluated using the methylthiazole-tetrazolium (MTT) colorimetric assay. After 24 and 72-h exposure, 25 μL of MTT solution (3 mg of MTT in 1 mL of phosphate buffered saline, PBS) were added to each well. The plates were incubated at 37 °C for an additional 2 h, after which the medium was removed and the formed formazan was dissolved in 50 μL of 0.08 M HCl in isopropanol during 30 min shaking. The absorbance in each well was read at 570 and 690 nm using a spectrophotometer (Tecan Infinite M200, Tecan, Männedorf, Switzerland).

TFRC mRNA = assay: RT-qPCR mRNA expression in dHepaRG cells; type: cell-based, human; conditions: single exposure, also at other than toxic concentrations
Procedure: (§1) Three concentrations were selected for each compound (non-toxic, non-toxic/slightly toxic and toxic). […] The expression changes of genes and proteins related to cholesterol metabolism were measured in both single and multiple exposure experiments.
(§2) All treatments were performed in triplicates and every experiment was performed three times. The cells were washed twice with ice cold phosphate-buffered saline (PBS), scrapped and stored at −80 °C until use. Total RNA from cells was isolated using TriReagent according to the manufacturer’s instructions (Biotech, Prague, Czech Republic). The purified RNA was dissolved in 40 µL of diethyl pyrocarbonate (DEPC)-treated water (0.01% DEPC in HPLC water, autoclaved) and stored at −80 °C. The measurement of absorbance at 260 and 280 nm using the NanoDrop ND-1000 UV–VIS Spectrophotometer (Thermo Fisher Scientific, Pardubice, Czech Republic) was used to determine RNA yields and purity. […] Fluorescence data were recorded at the end of each amplification step. Relative expression levels of the target genes were calculated as fold changes in triplicates for each group using the 2^−ΔΔCt method [28] by normalization to the geometric mean of the Ct values of Sdha and Ywhaz, which were used as reference genes.

HMGCS mRNA = assay: RT-qPCR mRNA expression in dHepaRG cells; type: cell-based, human
Procedure: (§3) Three concentrations were selected for each compound (non-toxic, non-toxic/slightly toxic and toxic). The cholesterol level of the dHepaRG cells was measured after a multiple exposure of the highest non-toxic concentrations of tested compounds. […] The expression changes of genes and proteins related to cholesterol metabolism were measured in both single and multiple exposure experiments.
All treatments were performed in triplicates and every experiment was performed three times. The cells were washed twice with ice cold phosphate-buffered saline (PBS), scrapped and stored at −80 °C until use. Total RNA from cells was isolated using TriReagent according to the manufacturer’s instructions (Biotech, Prague, Czech Republic). The purified RNA was dissolved in 40 µL of diethyl pyrocarbonate (DEPC)-treated water (0.01% DEPC in HPLC water, autoclaved) and stored at −80 °C. The measurement of absorbance at 260 and 280 nm using the NanoDrop ND-1000 UV–VIS Spectrophotometer (Thermo Fisher Scientific, Pardubice, Czech Republic) was used to determine RNA yields and purity. Subsequently, the RNA (4 µg) was treated with 2 U of DNase I (New England Biolabs, Ipswich, MA, USA) in a final volume of 30 µL for 25 min at 37 °C, 1.5 µL of 0.1 M ethylenediaminetetraacetic acid was added and the DNAse was inactivated by heat (5 min at 75 °C). The solution was diluted to a concentration of 0.1 µg/µL. The DNAse treated RNA was stored at −80 °C until further analyses. The first strand cDNA was synthesized from 800 ng of total RNA and 1 µL of 50 µM random hexamers (Generi Biotech, Hradec Kralove, Czech Republic) using ProtoScript II reverse transcriptase (New England Biolabs, Ipswich, MA, USA). After the initial heat denaturation of total RNA (65 °C for 5 min), 4 µL of 5× ProtoScript II RT Reaction Buffer, 2 µL of 10× dithiothreitol (DTT), 2 µL of deoxynucleotide (dNTP) Mix 5 mM, 3.5 µL of H2O, and 0.5 µL of ProtoScript II 200 U/µL were added and mixed by pipetting. The reactions (20 µL) were incubated for 10 min at 25 °C, for 50 min at 42 °C, and for 5 min at 80 °C. The obtained cDNAs were diluted 1:6 by DEPC water. The qPCR analyses were carried out using QuantStudio 6 Flex (Applied Biosystems, Foster City, CA, USA) with SYBR green I (Xceed qPCR SG Mix, Institute of Applied Biotechnologies, Prague, Czech Republic) detection according to the manufacturer’s protocol. […] Fluorescence data were recorded at the end of each amplification step. Relative expression levels of the target genes were calculated as fold changes in triplicates for each group using the 2^−ΔΔCt method [28] by normalization to the geometric mean of the Ct values of Sdha and Ywhaz, which were used as reference genes.

FASN mRNA = assay: RT-qPCR mRNA expression in dHepaRG cells; type: cell-based, human; conditions: single exposure, 6, 12 and 24 h
Procedure: as §3, §2

HMGCR mRNA = assay: RT-qPCR mRNA expression in dHepaRG cells; type: cell-based, human; conditions: single exposure, the highest concentration
Procedure: The mRNA and protein expression changes were measured after a single administration of ALA and GER. Three concentrations were selected for each compound (non-toxic, non-toxic/slightly toxic and toxic). The cholesterol level of the dHepaRG cells was measured after a multiple exposure of the highest non-toxic concentrations of tested compounds. ATL (30 µM) and GER (100 µM) were administered four times every 24 h. The expression changes of genes and proteins related to cholesterol metabolism were measured in both single and multiple exposure experiments.
All treatments were performed in triplicates and every experiment was performed three times. The cells were washed twice with ice cold phosphate-buffered saline (PBS), scrapped and stored at −80 °C until use. Total RNA from cells was isolated using TriReagent according to the manufacturer’s instructions (Biotech, Prague, Czech Republic). The purified RNA was dissolved in 40 µL of diethyl pyrocarbonate (DEPC)-treated water (0.01% DEPC in HPLC water, autoclaved) and stored at −80 °C. The measurement of absorbance at 260 and 280 nm using the NanoDrop ND-1000 UV–VIS Spectrophotometer (Thermo Fisher Scientific, Pardubice, Czech Republic) was used to determine RNA yields and purity. Subsequently, the RNA (4 µg) was treated with 2 U of DNase I (New England Biolabs, Ipswich, MA, USA) in a final volume of 30 µL for 25 min at 37 °C, 1.5 µL of 0.1 M ethylenediaminetetraacetic acid was added and the DNAse was inactivated by heat (5 min at 75 °C). The solution was diluted to a concentration of 0.1 µg/µL. The DNAse treated RNA was stored at −80 °C until further analyses. […] Fluorescence data were recorded at the end of each amplification step. Relative expression levels of the target genes were calculated as fold changes in triplicates for each group using the 2^−ΔΔCt method by normalization to the geometric mean of the Ct values of Sdha and Ywhaz, which were used as reference genes.

[1] = system: proliferative liver (HepG2, HuH-7, LO2), breast (MCF7, MDA-MB-231), and glioblastoma cancer cell lines; conditions: after 12 to 24 h; read-out: IC50 values in proliferative cancer cell lines (approximate); cited from earlier work
ACACB mRNA = assay: RT-qPCR mRNA expression in dHepaRG cells; type: cell-based, human; conditions: single exposure, 6, 12 and 24 h
Procedure: All treatments were performed in triplicates and every experiment was performed three times. The cells were washed twice with ice cold phosphate-buffered saline (PBS), scrapped and stored at −80 °C until use. Total RNA from cells was isolated using TriReagent according to the manufacturer’s instructions (Biotech, Prague, Czech Republic). The purified RNA was dissolved in 40 µL of diethyl pyrocarbonate (DEPC)-treated water (0.01% DEPC in HPLC water, autoclaved) and stored at −80 °C. The measurement of absorbance at 260 and 280 nm using the NanoDrop ND-1000 UV–VIS Spectrophotometer (Thermo Fisher Scientific, Pardubice, Czech Republic) was used to determine RNA yields and purity. Subsequently, the RNA (4 µg) was treated with 2 U of DNase I (New England Biolabs, Ipswich, MA, USA) in a final volume of 30 µL for 25 min at 37 °C, 1.5 µL of 0.1 M ethylenediaminetetraacetic acid was added and the DNAse was inactivated by heat (5 min at 75 °C). […] Fluorescence data were recorded at the end of each amplification step. Relative expression levels of the target genes were calculated as fold changes in triplicates for each group using the 2^−ΔΔCt method [28] by normalization to the geometric mean of the Ct values of Sdha and Ywhaz, which were used as reference genes.

ALB mRNA = assay: RT-qPCR mRNA expression in dHepaRG cells; type: cell-based, human; conditions: after 6 h of exposure
Procedure: as §1, §2

A1AT mRNA = assay: RT-qPCR mRNA expression in dHepaRG cells; type: cell-based, human; conditions: after 24 h
Procedure: as §1, §2

[2] = dHepaRG cell viability, 24 h single exposure, read-out: IC50 ± SD, MTT
[3] = dHepaRG cell viability, 72 h single exposure, read-out: IC50 ± SD, MTT
[4] = dHepaRG cells, 24-h treatment, read-out: half-maximal inhibitory concentration of cell viability (approximate)

Compound | toxicity toward dHepaRG cells compared with cancer cells (dHepaRG cells) | IC50 (dHepaRG cells; [2]) [µM] | IC50 (dHepaRG cells; [3]) [µM] | highest non-toxic concentration (dHepaRG cells; dHepaRG cells) [µM] | IC50 (dHepaRG cells; [4]) [µM] | cell viability (dHepaRG cells; dHepaRG cells) | TFRC mRNA expression (TFRC mRNA) | HMGCS mRNA level (HMGCS mRNA; multiple exposure: four applications every 24 h, analyzed 12 h after the last, 30 μM ATL, 100 μM GER, 20 μM LOV) | HMGCS mRNA level (HMGCS mRNA; single exposure, the highest concentration, 6-h exposure) | HMGCS mRNA level (HMGCS mRNA; single exposure, the highest concentration, 12- and 24-h exposure) | FASN mRNA level (FASN mRNA) | HMGCR mRNA level (HMGCR mRNA; 6-h exposure) | HMGCR mRNA level (HMGCR mRNA; 12- and 24-h exposure) | IC50 [1] [µM] | ACACB mRNA level (ACACB mRNA) | ALB mRNA expression (ALB mRNA) | A1AT mRNA expression (A1AT mRNA)
C=C1C(=O)O[C@@H]2C[C@@]3(C)CCC[C@H](C)C3=C[C@H]12 [ATL, alantolactone] | significantly lesser toxicity | 58.9 ± 3.5 | 57.2 ± 1 | 30 | ~60 | concentration-dependent decrease in the cell viability | inhibited | induced | induction | decreased level | significantly decreased | induction | decreased level | 10 to 30 | significantly decreased | – | –
CC(C)=C1C/C=C(\C)CC/C=C(\C)CC1=O [GER, germacrone] | similar | 256 ± 5.7 | 242 ± 17.4 | 100 | ~250 | concentration-dependent decrease in the cell viability | inhibited | – | – | – | significantly decreased | – | – | 150 to 250 | significantly decreased | induced | inhibited
